Laboratory results from patent publication US10934255B2, “Nrf and HIF activators/HDAC inhibitors and therapeutic methods using the same” (THE BOARD OF TRUSTEES OF THE UNIVERSITY OF ILLINOIS, priority 2017, dated 2021).

Columns and labels:
[1] = system: C57BL/6 mice; assay: Behavioral screening in the SmartCube (SC) platform; type: in vivo; conditions: 50 mg/kg ip
Description: FIG. 4 contains the SC signature of II-ING-6 (50 mg/kg, ip) showing anxiolytic activity.
Another evidence that II-ING-6 is can cross the BBB was obtained from SC (Frontiers in Neuroscience 2011, 5 (103), p. 1-4) experiment. SC provides a sequence of challenges to mice and captures more than 2,000 features during a 1 hour testing session. These features are analyzed with computer algorithms and data mining approaches to automate the study of mice behavior and compared to a database of behavioral signatures obtained using a set of diverse reference compounds, including antidepressants, cognitive enhancers, antipsychotics, and anxiolytics. In this assay, C57BL/6 mice were injected with compound II-ING-6 at 50 mg/kg (ip).

[2] = system: Nrf2 target genes; assay: In vivo activation of Nrf2 pathway (RT-PCR of target genes); conditions: 3 month old male C57BL/6 mice, 25 mg/kg i.p.
Description: The expression of Nrf2 target genes was assessed in 3 month old male C57BL/6 mice administered with II-ING-66 (25 mg/kg i.p.). […] These in vivo data support the in vitro observations of HIF-1α and Nrf2 activation by phenylhydroxamate HDAC inhibitors (Gaisina et al, ACS Chem. Neurosci. 2017).

| Compound | SC signature (behavioral class) [1] | Hmox-1 expression in the liver [2] | Hmox-1 expression in ventral midbrain and striatum [2] | NQO1 expression in ventral midbrain and striatum [2] |
| --- | --- | --- | --- | --- |
| O=C(NO)c1ccc(CN2CCc3ccc(Cl)cc32)cc1 [II-ING-6, 4-((6-Chloroindolin-1-yl)methyl)-N-hydroxybenzamide] | anxiolytic effect |  |  |  |
| O=C(NO)c1ccc(CN2C(=O)C(F)(F)c3ccccc32)cc1 [II-ING-66, 4-((3,3-Difluoro-2-oxoindolin-1-yl)methyl)-N-hydroxybenzamide] |  | significantly upregulated | significant increases | significant increases |
